Assay results published in patent publication US6677358B1, “NIDDM regimen” (Novo Nordisk A/S, priority 1997, dated 2004).
Values joined by “and” are separate entries in the source; they are usually repeats but may differ in a detail not shown here. Equal entries are not always repeated. Where two headings read alike, the source gives them in different places.

What was measured:
NIDDM patients = test: Repaglinide 3 times daily before meals (REP3) vs twice daily (REP2), 4-week double-blind study; conditions: for Fasting blood glucose (mean ±SEM) after 4 weeks: doubled after 2 weeks
Description: The potential impact of tailoring insulin release to meal in-take was investigated in a study comparing 3 times daily dosing with repaglinide just before meals to the same dosage administered twice daily. Eighteen OHA-naive NIDDM patients entered a 4-week, single centre, double-blind study, and were randomised to either 0.25 mg repaglinide before breakfast, lunch and dinner (REP3), or 0.5 mg before breakfast, placebo at lunch, and 0.25 mg before dinner (REP2). After two weeks the doses were doubled.
After 2 weeks, the doses were doubled to 0.5 mg before each meal (REP3) and 1 mg+0.5 mg (REP2).

[1] = system: NIDDM patients inadequately controlled on metformin alone; conditions: for Change in FPG / Change in HbA1c (%) / Change in C peptide / Change in fasting insulin (mU/l): mean ± SEM; for Change in FPG / Change in HbA1c (%): baseline to end of 3-month maintenance period; for Change in C peptide / Change in fasting insulin (mU/l): baseline to end of maintenance treatment period
[2] = system: patients with type 2 diabetes; test: Flexible meal-related dosing study of repaglinide (mixed vs fixed regimen), open-label parallel group; assay type: in vivo, human; conditions: for Mean fructosamine: 1 mg preprandially, end of 21 days
Description: In a single-centre, randomised, open-label, parallel group comparison study it was investigated whether repaglinide given preprandially will maintain glycaemic control in patients who skip a meal (lunch) or have an extra meal (bedtime snack) [mixed regimen] as compared with those who have three regular meals [fixed regimen].
A total of 25 diet-treated patients with type 2 diabetes were enrolled (18 men and 7 women) and given a fixed 1 mg dose of repaglinide preprandially (therapeutic dose range: 0.5-4 mg). After one week of stabilisation patients were randomised to the mixed or fixed regimen for a period of 21 days if blood glucose was >140 mg/dl.

[3] = Half-life (duration of action) of repaglinide; conditions: in vivo

Structure (SMILES): CCOc1cc(CC(=O)N[C@@H](CC(C)C)c2ccccc2N2CCCCC2)ccc1C(=O)O [Repaglinide, (S)-(+)-2-ethoxy-4-[2-[[3-methyl-1-[2-(1-piperidinyl)phenyl]butyl]amino]-2-oxo-ethyl]benzoic acid]
- Blood glucose (AUC0-24 h) after 4 weeks (NIDDM patients; REP2 (twice daily)): 8.91 mmol/L
- Increase in normed AUC0-24 h for plasma insulin (NIDDM patients; REP2, after 4 weeks): 20%
- Fasting blood glucose (mean ±SEM) after 4 weeks (NIDDM patients; REP2: 0.5 mg before breakfast + 0.25 mg before dinner, baseline 11.3±0.73, 11.2): 9.6 mmol/L and 9.6 ± 0.7 mmol/L
- HbA1c (±SEM) after 4 weeks (NIDDM patients; REP2, baseline 7.12±0.24, decrease non-significant): 6.8% and 6.84±0.34%
- Blood glucose (AUC0-24 h) after 4 weeks (NIDDM patients; REP3 (three times daily before meals), P<0.05 vs REP2): 7.00 mmol/L
- Increase in normed AUC0-24 h for plasma insulin (NIDDM patients; REP3, after 4 weeks): 35-40%
- Fasting blood glucose (mean ±SEM) after 4 weeks (NIDDM patients; REP3: 0.25 mg, before each of three main meals, baseline 11.1±1.24, 11.2): 8.4 mmol/L and 8.4 ± 1.01 mmol/L
- HbA1c (±SEM) after 4 weeks (NIDDM patients; REP3, baseline 7.51±0.78, P=0.004): 6.5% and 6.51±0.64%
- Postprandial blood glucose, lower with REP3 than with REP2 (NIDDM patients; after 4 weeks, P<0.05): about 2.5 mmol/l
- Normed AUC0-24 h for plasma C-peptide (NIDDM patients; both groups (REP2, REP3), after 4 weeks): increased in both groups
- Plasma insulin before the next meal (NIDDM patients; both treatment groups): decreased to pre-treatment levels
- Plasma insulin during the night in comparison with pre-treatment levels (NIDDM patients; both treatment groups): no increase
- Non-serious adverse events (NIDDM patients; either treatment group): mild hypoglycemic episodes and one case of influenza
- Serious adverse events (NIDDM patients; either treatment group): No serious adverse events
- Frequency of drug-related adverse events ([1]; human, in vivo): 25.0%
- Gastrointestinal side effects ([1]; human, in vivo): 3.6%
- Patients reporting hypoglycemic episodes (%) ([1]; human, in vivo): 17.9%
- Patients reporting hypoglycemic episodes (number) ([1]; human, in vivo): 3 patients
- Change in mean body weight during the study ([1]; in vivo): +2.98±0.49 kg
- Change in FPG [1]: 0.49 mmol/L
- Change in HbA1c (%) [1]: −0.38%
- Change in FPG ([1]; listed as REP): 0.49 mmol/L
- Change in HbA1c (%) ([1]; listed as REP): −0.38%
- Change in C peptide [1]: 0.18 nmol/L
- Change in fasting insulin (mU/l) [1]: 4.04 ± 1.56 mU/l
- Blood glucose AUC over 24 hours, difference between fixed and mixed groups ([2]; 37-point blood glucose profile): not statistically significant
- Hypoglycaemic episodes or serious adverse events ([2]; both regimens): no hypoglycaemic episodes or serious adverse events were reported
- Mean fructosamine ([2]; fixed regimen (three regular meals), decreased from 3.10, p<0.05): 2.68 mmol/L
- Tolerability of dose regimens ([2]; in vivo): well tolerated
- Blood glucose levels when lunch was omitted ([2]; mixed regimen): remained stable until next meal
- Mean fructosamine ([2]; mixed regimen (skipped lunch or extra bedtime snack), decreased from 3.37, p<0.05): 2.85 mmol/L
- Mean fasting blood glucose (FBG) ([2]; value decreased to, both groups (fixed and mixed regimen)): approximately 120 mg/dl
- T½ (short duration of action) [3]: one

Structure (SMILES): CN(C)C(=N)N=C(N)N [Metformin, metformin]
- Change in mean body weight during the study ([1]; in vivo): -0.86 ± 0.51 kg
- Frequency of drug-related adverse events ([1]; in vivo): 14.8%
- Gastrointestinal side effects ([1]; in vivo): 7.4%
- Patients reporting hypoglycemic episodes (number) ([1]; in vivo): none
- Change in FPG [1]: -0.25 mmol/L
- Change in HbA1c (%) [1]: −0.33%
- Change in FPG ([1]; listed as MET): -0.25 mmol/L
- Change in HbA1c (%) ([1]; listed as MET): −0.33%
- Change in C peptide [1]: 0.02 nmol/L
- Change in fasting insulin (mU/l) [1]: 1.05 ± 1.60 mU/l
